Assays:
human A2B receptors = human A2B receptors (Homo sapiens (Human), UniProt P29275); assay: A2B antagonism in cAMP cell-based assay (LANCE cAMP, HEK293); settings: HEK293 cells expressing human A2B receptor
How it was run: (§1)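 HEK293 cells expressing human A2A or A2B, in HBSS/5 mM HEPES/200 nM rolipram, were preincubated with compound (0.5–10,000 nM, 0.25% DMSO) 30 min at 37° C. Adenosine was then added from 300 nM (A2A) or 600 nM (A2B) solution for 30 min.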

human A2A receptors = human A2A receptors (Homo sapiens (Human), UniProt P29274); assay: A2A antagonism in cAMP cell-based assay (LANCE cAMP, HEK293); settings: HEK293 cells expressing human A2A receptor
How it was run: as §1

human A2B receptors, sequence (P29275 whole entry): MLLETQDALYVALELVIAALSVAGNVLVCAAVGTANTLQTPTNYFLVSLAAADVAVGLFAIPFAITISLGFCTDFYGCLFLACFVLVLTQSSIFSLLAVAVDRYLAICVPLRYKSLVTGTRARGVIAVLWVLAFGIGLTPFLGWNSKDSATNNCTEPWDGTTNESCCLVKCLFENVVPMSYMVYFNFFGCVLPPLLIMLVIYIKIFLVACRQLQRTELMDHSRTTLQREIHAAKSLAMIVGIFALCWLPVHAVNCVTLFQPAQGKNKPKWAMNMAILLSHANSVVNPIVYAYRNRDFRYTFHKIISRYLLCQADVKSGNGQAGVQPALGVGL
human A2A receptors, sequence (P29274 whole entry): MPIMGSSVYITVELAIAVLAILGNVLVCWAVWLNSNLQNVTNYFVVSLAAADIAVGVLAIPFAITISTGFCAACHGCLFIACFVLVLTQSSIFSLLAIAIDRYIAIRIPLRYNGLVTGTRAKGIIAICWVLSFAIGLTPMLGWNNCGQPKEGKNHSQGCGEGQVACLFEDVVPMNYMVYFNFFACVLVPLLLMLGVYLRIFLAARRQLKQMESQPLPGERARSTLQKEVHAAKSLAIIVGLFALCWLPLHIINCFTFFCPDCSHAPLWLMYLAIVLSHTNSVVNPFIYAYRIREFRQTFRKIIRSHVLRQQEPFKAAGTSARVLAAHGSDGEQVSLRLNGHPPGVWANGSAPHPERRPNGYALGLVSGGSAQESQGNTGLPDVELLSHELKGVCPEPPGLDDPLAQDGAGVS

Compound `COc1cc2nc(N)n3nc(C4CCC(C)N(c5cnn(CC(C)(O)CO)c5)C4)nc3c2cc1F` (single isomer, unassigned) [Example 254] has an IC50 (human A2B receptors) of 10 nM and an IC50 (human A2A receptors) of 1.5 nM.
`COc1cc(F)cc2c1nc(N)n1nc(C3CC(C)CN(c4cnn(C(C)C(C)O)c4C)C3)nc21` (single isomer, unassigned) [Example 220, (2S,3S or 2R,3R)-3-(4-((3R,5S or 3S,5R)-3-(5-amino-9-fluoro-7-methoxy-[1,2,4]triazolo[1,5-c]quinazolin-2-yl)-5-methylpiperidin-1-yl)-5-methyl-1H-pyrazol-1-yl)butan-2-ol] was tested, and the “A2B cAMP % Inh. @10000 nM” value (human A2B receptors; at 10000 nM) was 30% Inh and the IC50 (human A2A receptors) was 20.4 nM.
`COc1cc(F)cc2c1nc(N)n1nc([C@@H]3CCCN(c4cn(C(C)C(C)O)nc4C)C3)nc21` (single isomer, unassigned) [Example 189, (2S,3S or 2R,3R)-3-(4-((R)-3-(5-amino-9-fluoro-7-methoxy-[1,2,4]triazolo[1,5-c]quinazolin-2-yl)piperidin-1-yl)-3-methyl-1H-pyrazol-1-yl)butan-2-ol] was tested, and the IC50 (human A2B receptors) was 53.4 nM and the IC50 (human A2A receptors) was 0.5 nM.
Compound `CC1CC(c2nc3c4cc(F)cc(F)c4nc(N)n3n2)CN(c2cnn(CC(C)(C)O)c2)C1` (single isomer, unassigned) [Example 181, 1-(4-((3S,5S or 3R,5R)-3-(5-amino-7,9-difluoro-[1,2,4]triazolo[1,5-c]quinazolin-2-yl)-5-methylpiperidin-1-yl)-1H-pyrazol-1-yl)-2-methylpropan-2-ol] has an IC50 (human A2B receptors) of 5100 nM and an IC50 (human A2A receptors) of 16 nM.
Work on `COc1cc(F)cc2c1nc(N)n1nc(C3CC(C)CN(c4cn(C(C)(C)C(C)O)nc4C)C3)nc21` (single isomer, unassigned) [Example 207, (R or S)-3-(4-((3S,5R or 3R,5S)-3-(5-amino-9-fluoro-7-methoxy-[1,2,4]triazolo[1,5-c]quinazolin-2-yl)-5-methylpiperidin-1-yl)-3-methyl-1H-pyrazol-1-yl)-3-methylbutan-2-ol] yielded an IC50 (human A2B receptors) of 10.4 nM and an IC50 (human A2A receptors) of 0.9 nM.
For `CCC(C)(O)Cn1cc(N2CCC[C@@H](c3nc4c5cc(F)c(OC)cc5nc(N)n4n3)C2)cn1` (single isomer, unassigned) [Example 183, (R or S)-1-(4-((R)-3-(5-amino-9-fluoro-8-methoxy-[1,2,4]triazolo[1,5-c]quinazolin-2-yl)piperidin-1-yl)-1H-pyrazol-1-yl)-2-methylbutan-2-ol], the IC50 (human A2B receptors) was 90.6 nM and the IC50 (human A2A receptors) was 2 nM.
Work on `COc1cc2nc(N)n3nc(C4CCC(C)N(c5cnn(CC6(O)CC6)c5)C4)nc3c2cc1F` (single isomer, unassigned) [Example 272, 1-((4-((2S,5R or 2R,5S)-5-(5-amino-9-fluoro-8-methoxy-[1,2,4]triazolo[1,5-c]quinazolin-2-yl)-2-methylpiperidin-1-yl)-1H-pyrazol-1-yl)methyl)cyclopropan-1-ol] yielded an IC50 (human A2B receptors) of 5800 nM and an IC50 (human A2A receptors) of 43.6 nM.
With `COc1cc2nc(N)n3nc([C@@H]4CCCN(c5cnn(CCC(C)(C)O)c5)C4)nc3c2cc1F` [Example 152, (R)-4-(4-(3-(5-amino-9-fluoro-8-methoxy-[1,2,4]triazolo[1,5-c]quinazolin-2-yl)piperidin-1-yl)-1H-pyrazol-1-yl)-2-methylbutan-2-ol] the IC50 (human A2B receptors) was 371 nM and the IC50 (human A2A receptors) was 5.9 nM.
For `Cc1nn(C(C)(C)CO)cc1N1CC(C)CC(c2nc3c4cc(F)cc(F)c4nc(N)n3n2)C1` (single isomer, unassigned) [Example 177, 2-(4-((3R,5S or 3S,5R)-3-(5-amino-7,9-difluoro-[1,2,4]triazolo[1,5-c]quinazolin-2-yl)-5-methylpiperidin-1-yl)-3-methyl-1H-pyrazol-1-yl)-2-methylpropan-1-ol], the IC50 (human A2B receptors) was 3960 nM and the IC50 (human A2A receptors) was 154 nM.
Compound `COc1cc2nc(N)n3nc(C4CC(C)CN(c5cnn(C(C)(C)CO)c5)C4)nc3c2cc1F` (racemic) [Example 156, racemic, trans-2-(4-(3-(5-amino-9-fluoro-8-methoxy-[1,2,4]triazolo[1,5-c]quinazolin-2-yl)-5-methylpiperidin-1-yl)-1H-pyrazol-1-yl)-2-methylpropan-1-ol] has an IC50 (human A2B receptors) of 358 nM and an IC50 (human A2A receptors) of 9.5 nM.
`COc1cc2nc(N)n3nc([C@@H]4C[C@H](C)CN(c5cn([C@@H](C)[C@H](C)O)nc5C)C4)nc3c2cc1F` (single isomer, unassigned) [Example 208, (2S,3S or 2R,3R)-3-(4-((3R,5S or 3S,5R)-3-(5-amino-9-fluoro-8-methoxy-[1,2,4]triazolo[1,5-c]quinazolin-2-yl)-5-methylpiperidin-1-yl)-3-methyl-1H-pyrazol-1-yl)butan-2-ol] gave an IC50 (human A2B receptors) of 2800 nM and an IC50 (human A2A receptors) of 0.7 nM.
`Cc1nn(CC(C)(C)O)cc1N1CCC[C@@H](c2nc3c4cc(F)c(OC(F)F)cc4nc(N)n3n2)C1` [Example 154, (R)-1-(4-(3-(5-amino-8-(difluoromethoxy)-9-fluoro-[1,2,4]triazolo[l,5-c]quinazolin-2-yl)piperidin-l-yl)-3-methyl-1H-pyrazol-1-yl)-2-methylpropan-2-ol] gave an IC50 (human A2B receptors) of 974 nM and an IC50 (human A2A receptors) of 1.2 nM.
In the case of `COc1cc2nc(N)n3nc(C4CCC(C)N(c5cnn(C(C)C(C)O)c5)C4)nc3c2cc1F` (single isomer, unassigned) [Example 236, (2S,3R or 2R,3S)-3-(4-((2S,5R or 2R,5S)-5-(5-amino-9-fluoro-8-methoxy-[1,2,4]triazolo[1,5-c]quinazolin-2-yl)-2-methylpiperidin-1-yl)-1H-pyrazol-1-yl)butan-2-ol], the IC50 (human A2B receptors) is reported as 5.1 nM and the IC50 (human A2A receptors) is reported as 1 nM.
In the case of `COc1cc(F)cc2c1nc(N)n1nc([C@@H]3CCCN(c4cnn(C(C)C(C)O)c4)C3)nc21` (single isomer, unassigned) [Example 201, (2R,3S or 2S,3R)-3-(4-((R)-3-(5-amino-9-fluoro-7-methoxy-[1,2,4]triazolo[1,5-c]quinazolin-2-yl)piperidin-1-yl)-1H-pyrazol-1-yl)butan-2-ol], the IC50 (human A2B receptors) is reported as 38.4 nM and the IC50 (human A2A receptors) is reported as 1.9 nM.
`COc1cc2nc(N)n3nc(C4CCC(C)N(c5cnn(CC(C)(O)CO)c5)C4)nc3c2cc1F` (single isomer, unassigned) [Example 253, (S or R)-2-(4-((2S,5R or 2R,5S)-5-(5-amino-9-fluoro-8-methoxy-[1,2,4]triazolo[1,5-c]quinazolin-2-yl)-2-methylpiperidin-1-yl)-1H-pyrazol-1-yl)-2-methylpropane-1,2-diol] was tested, and the IC50 (human A2B receptors) was over 10000 nM and the IC50 (human A2A receptors) was 123 nM.
In the case of `COc1cc2nc(N)n3nc(C4CCC(C)N(c5cnn(CC(C)(C)N)c5)C4)nc3c2cc1F` (single isomer, unassigned) [Example 262, 2-((3R,6S or 3S,6R)-1-(1-(2-amino-2-methylpropyl)-1H-pyrazol-4-yl)-6-methylpiperidin-3-yl)-9-fluoro-8-methoxy-[1,2,4]triazolo[1,5-c]quinazolin-5-amine], the IC50 (human A2B receptors) is reported as 23.9 nM and the IC50 (human A2A receptors) is reported as 2.2 nM.
`COc1cc2nc(N)n3nc(C4CCC(C)N(c5cnn(C(C)(C)C(C)O)c5)C4)nc3c2cc1F` (single isomer, unassigned) [Example 264, (R or S)-3-(4-((2S,5R or 2R,5S)-5-(5-amino-9-fluoro-8-methoxy-[1,2,4]triazolo[1,5-c]quinazolin-2-yl)-2-methylpiperidin-1-yl)-1H-pyrazol-1-yl)-3-methylbutan-2-ol] gave an IC50 (human A2B receptors) of 14.3 nM and an IC50 (human A2A receptors) of 3 nM.
